# Data from patent US9145354B2, “Pharmaceutical compounds” (priority 2011, dated 2015).
# Where two headings read alike, the source gives them in different places.
# Molecular target: full length NS3/4a (Hepatitis C virus genotype 1b (isolate BK) (HCV), UniProt P26663)
# Assay: NS3 Protease Assay (Example A), FRET-based
# Assay type: biochemical
# Outline: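 Full-length NS3/4a, made in-house, with an NS4A/B-derived peptide substrate carrying QXL520 quencher and 5-FAMsp fluorophore. Buffer 50 mM Tris pH8, 20 mM DTT, 1% CHAPS, 10% glycerol, 5% DMSO. Fluorescence followed 30 min at room temperature; IC50 from initial rates of replicate curves.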
# [1] = HCV NS3 protease assay, full length NS3/4a, read-out: Assay A IC50 (μM) average
# [2] = read-out: IC50 against the protease activity of the full length NS3/4a
# [3] = stated as IC50 less than 30 μM or at least 40% inhibition at a concentration of 100 μM, read-out: IC50 against the protease activity of the full length NS3/4a
# Sequence of full length NS3/4a (P26663 1027-1657): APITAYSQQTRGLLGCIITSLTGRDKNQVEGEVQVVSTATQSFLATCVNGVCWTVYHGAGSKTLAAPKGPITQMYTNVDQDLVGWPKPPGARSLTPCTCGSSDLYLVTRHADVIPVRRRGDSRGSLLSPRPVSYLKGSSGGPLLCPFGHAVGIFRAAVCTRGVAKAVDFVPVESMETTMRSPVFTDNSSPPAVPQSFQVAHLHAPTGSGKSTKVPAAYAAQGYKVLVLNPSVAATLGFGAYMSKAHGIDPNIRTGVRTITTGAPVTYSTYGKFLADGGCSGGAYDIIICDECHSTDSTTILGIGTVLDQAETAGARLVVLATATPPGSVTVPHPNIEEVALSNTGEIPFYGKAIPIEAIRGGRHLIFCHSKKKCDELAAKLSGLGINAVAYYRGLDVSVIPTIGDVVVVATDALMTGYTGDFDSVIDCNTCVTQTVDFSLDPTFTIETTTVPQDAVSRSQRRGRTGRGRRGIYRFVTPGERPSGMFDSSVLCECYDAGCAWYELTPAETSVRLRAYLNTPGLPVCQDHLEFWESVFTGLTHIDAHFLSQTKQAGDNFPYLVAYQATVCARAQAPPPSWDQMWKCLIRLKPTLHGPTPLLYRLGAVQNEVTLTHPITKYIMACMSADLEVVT
Compound,IC50 [1] [µM],IC50 [2] [µM],IC50 [3] [µM],other results
"CC[C@@H](N)c1ccc(Cl)c(C(=O)c2ccccn2)c1F [Example 14, (1R)-1-{4-chloro-2-fluoro-3-[(pyridin-2-yl)carbonyl]phenyl}propan-1-amine]",2.5,1 to 5,–,–
"CC[C@@H](N)c1ccc(Cl)c(C(=O)c2ccnc(N)c2)c1F [Example 52, 4-({3-[(1R)-1-aminopropyl]-6-chloro-2-fluorophenyl}carbonyl)pyridin-2-amine]",0.77,< 1,–,–
"CC[C@@H](N)c1ccc(Cl)c(C(=O)c2ccc([N+](=O)[O-])c(C)c2)c1F [Example 64, (1R)-1-{4-chloro-2-fluoro-3-[(3-methyl-4-nitrophenyl)carbonyl]phenyl}propan-1-amine]",–,–,–,inhibition at 0.1 µM (@ 0.1 uM): 44%
"CC[C@@H](N)c1ccc(Cl)c(C(=O)c2ccc[n+]([O-])c2)c1F [Example 25, [3-((R)-1-Amino-propyl)-6-chloro-2-fluoro-phenyl]-(1-oxy-pyridin-3-yl)-methanone]",–,–,< 30,inhibition at 30 µM (@ 30 uM): 59%
"CC[C@@H](N[C@@H](C)C(N)=O)c1ccc(Cl)c(C(=O)c2cccnc2)c1F [Example 170, (2S)-2-{[(1R)-1-{4-chloro-2-fluoro-3-[(pyridin-3-yl)carbonyl]phenyl}-propyl]amino}-propanamide]",–,1 to 5,–,inhibition at 3 µM (@ 3 uM): 55%
"CC[C@@H](N[C@H](C)CC(N)=O)c1ccc(Cl)c(C(=O)c2ccc(C#N)nc2)c1F [Example 141, (3R)-3-{[(1R)-1-{4-chloro-3-[(6-cyanopyridin-3-yl)carbonyl]-2-fluorophenyl}propyl]-amino}butanamide]",0.47,< 1,–,–
"CC[C@@H](N[C@@H](C)CC(=O)NCCN)c1ccc(Cl)c(C(=O)c2ccc(N)nc2)c1F [Example 240, (3S)-N-(2-aminoethyl)-3-{[(1 R)-1-{3-[(6-aminopyridin-3-yl)carbonyl]-4-chloro-2-fluorophenyl}propyl]amino}-butanamide]",–,–,< 30,inhibition at 0.03 µM (@ 0.03 uM): 48%
"CC[C@@H](N[C@H](C)CC(N)=O)c1ccc(Cl)c(C(=O)c2ccncn2)c1F [Example 100, (3R)-3-{[(1R)-1-{4-chloro-2-fluoro-3-[(pyrimidin-4-yl)carbonyl]phenyl}propyl]amino}butanamide]",14,–,< 30,–
"CCC(NC1CCCC1C(N)=O)c1ccc(Cl)c(C(=O)c2ccc(N)nc2)c1F (single isomer, unassigned) [Example 127, 2-{[1-{3-[(6-aminopyridin-3-yl)carbonyl]-4-chloro-2-fluorophenyl}propyl]amino} cyclopentane-1-carboxamide]",1.6,1 to 5,–,–
"CC[C@@H](N)c1ccc(Cl)c(C(=O)c2ccncn2)c1F [Example 10, (1R)-1-{4-chloro-2-fluoro-3-[(pyrimidin-4-yl)carbonyl]phenyl}-propan-1-amine]",3.5,1 to 5,–,–
"CC[C@@H](N[C@H](C)CC(N)=O)c1ccc(Cl)c(C(=O)c2ccc(N)cn2)c1F [Example 156, (3R)-3-{[(1R)-1-{3-[(5-aminopyridin-2-yl)carbonyl]-4-chloro-2-fluorophenyl}propyl]-amino}butanamide]",2,1 to 5,–,–
"CC[C@@H](N[C@H](C)CC(N)=O)c1ccc(Cl)c(C(=O)c2ccc(N)nc2)c1F [Example 266, (3R)-3-{[(1R)-1-{3-[(6-aminopyridin-3-yl)carbonyl]-4-chloro-2-fluorophenyl}(2,2,3,3,3-deutero)propyl]amino}butanamide]",1.1,1 to 5,–,–
"CC[C@@H](N[C@H](CC(N)=O)C(C)C)c1ccc(Cl)c(C(=O)c2ccc(N)nc2)c1F [Example 219, (3R)-3-{[(1R)-1-{3-[(6-aminopyridin-3-yl)carbonyI]-4-chloro-2-fluorophenyl}propyl]amino}-4-methylpentanamide]",7.5,–,< 30,–
